Experimental data: patent EP0624315B1, “Diaryl(pyridinio and isoquinolinio) boron fungicidal agents” (AMERICAN CYANAMID COMPANY, priority 1993, dated 1994)

Columns and labels:
[1] = system: Erysiphe graminis f. sp. tritici; assay: In vivo fungicidal evaluation, Wheat Powdery Mildew; details: 200 ppm, host plants sprayed, dried, then inoculated; also: ranges in brackets are in %
Plasmopara viticola = assay: In vivo fungicidal evaluation, Grape Downy Mildew; details: 200 ppm, host plants sprayed, dried, then inoculated; also: ranges in brackets are in %
Botrytis cinerea = assay: In vivo fungicidal evaluation, Pepper Botrytis; details: 200 ppm, host plants sprayed, dried, then inoculated; also: ranges in brackets are in %
[2] = system: Rhizoctonia solani (Rhizso); assay: In vitro fungicidal evaluation, mycelial growth inhibition in nutrient broth; format: cell-based; details: 25 ppm, 3-4 days at 21°C, rated visually; also: ranges in brackets are in %
Experimental: (§1) Test compounds are dissolved or suspended in acetone and dispersed into cell well plates containing a suspension of ground fungal mycelia in a nutrient broth. Assay plates are incubated for 3-4 days at 21°C. Growth inhibition is measured visually and is rated using the following scale:
(§2) Untreated controls, solvent blanks and reference standards are included in each test.
(§3) Assay fungi include the plant pathogens, Pythium ultimum (Pythul); Rhizoctonia solani (Rhizso); Fusarium oxysporum f. sp. cucumerinum (Fusoxc); and Pseudocercosporella herpotrichoides (Psdche).
(§4) When more than one test is run, the data are averaged. The compouds evaluated are reported by compound number given in Example 5.

[3] = system: Fusarium oxysporum f. sp. cucumerinum (Fusoxc); assay: as above; format: cell-based; details: 25 ppm, 3-4 days at 21°C, rated visually; also: ranges in brackets are in %
Experimental: as §1, §2, §3, §4

Pythium ultimum (Pythul) = assay: as above; format: cell-based; details: 25 ppm, 3-4 days at 21°C, rated visually; also: ranges in brackets are in %
Experimental: as §1, §2, §3, §4

[4] = system: Pseudocercosporella herpotrichoides (Psdche); assay: as above; format: cell-based; details: 25 ppm, 3-4 days at 21°C, rated visually; also: ranges in brackets are in %
Experimental: as §1, §2, §3, §4

Cercospora beticola = assay: In vivo fungicidal evaluation, Sugar Beet Cercospora; details: 200 ppm, host plants sprayed, dried, then inoculated; also: ranges in brackets are in %
Pyricularia oryzae = format: in vivo; details: 200 ppm, host plants sprayed, dried, then inoculated
Venturia inaequalis = assay: In vivo fungicidal evaluation, Apple Scab; details: 200 ppm, host plants sprayed, dried, then inoculated; also: ranges in brackets are in %
Alternaria solani = assay: In vivo fungicidal evaluation, Tomato Early Blight; details: 200 ppm, host plants sprayed, dried, then inoculated; also: ranges in brackets are in %
[5] = system: Puccinia recondita f. sp. tritici; assay: In vivo fungicidal evaluation, Wheat Leaf Rust; details: 200 ppm, host plants sprayed, dried, then inoculated; also: ranges in brackets are in %

Molecule	WPM (Wheat Powdery Mildew) disease control rating [1]	GDM (Grape Downy Mildew) disease control rating (Plasmopara viticola)	PB (Pepper Botrytis) disease control rating (Botrytis cinerea)	RHIZSO growth inhibition rating [2]	FUSOXC growth inhibition rating [3]	PHTHUL growth inhibition rating (Pythium ultimum (Pythul))	PSDCHE growth inhibition rating [4]	SBC (Sugar Beet Cercospora) disease control rating (Cercospora beticola)	RB (Rice Blast) disease control rating (Pyricularia oryzae)	AS (Apple Scab) disease control rating (Venturia inaequalis)	TEB (Tomato Early Blight) disease control rating (Alternaria solani)	WLR (Wheat Leaf Rust) disease control rating [5]
C[B-](c1ccccc1)(c1ccccc1)[n+]1ccc(-c2ccccc2)cc1 [Compound 17, (4-Phenylpyridinio)methyldiphenylboron]	8 (96 - 99)	9 (100)	9 (100)	5 (60 - 89)	7 (90 - 99)	0 (0)	7 (90 - 99)	8 (96 - 99)	8 (96 - 99)	9 (100)	9 (100)	
CC(=O)c1cc[n+]([B-](C)(c2ccccc2)c2ccccc2)cc1 [Compound 19, (4-Acetylpyridinio)methyldiphenylboron]	8 (96 - 99)	9 (100)	9 (100)	7 (90 - 99)	7 (90 - 99)	7 (90 - 99)	9 (100)	9 (100)	8 (96 - 99)	9 (100)	8 (96 - 99)	
C[B-](c1ccccc1)(c1ccccc1)[n+]1ccc(C(C)(C)C)cc1 [Compound 20, (4-Tert-butyl-pyridinio)methyldiphenylboron]	7 (90 - 95)	9 (100)	9 (100)	7 (90 - 99)	7 (90 - 99)	7 (90 - 99)	7 (90 - 99)	9 (100)	8 (96 - 99)	9 (100)	8 (96 - 99)	
(3-Butylpyridinio)methyldiphenylboron [Compound 3]	8 (96 - 99)	9 (100)	6 (75 - 89)	9 (100)	9 (100)	9 (100)	9 (100)	0 (0)	0 (0)	9 (100)	8 (96 - 99)	8 (96 - 99)
(4-Cyanopyridinio)methyldiphenylboron [Compound 16]	0 (0)	9 (100)	8 (96 - 99)	7 (90 - 99)	7 (90 - 99)	7 (90 - 99)	9 (100)	8 (96 - 99)	9 (100)	9 (100)	8 (96 - 99)	
(5,6,7,8-Tetrahydroisoquinolinio)methyldiphenylboron [Compound 4]	8 (96 - 99)	9 (100)	9 (100)	9 (100)	9 (100)	7 (90 - 99)	9 (100)	8 (96 - 99)	0 (0)	9 (100)	6 (75 - 89)	9 (100)
